Results: US7465815B2, “Cannabinoid receptor modulator” (priority 2003, dated 2008)
Like-named read-outs stand apart in the source and are kept apart here.

What was measured:
human CB1 receptor = molecular target: T1, human CB1 receptor (Homo sapiens, UniProt P21554); assay: [3H]-CP55,940 binding inhibition assay, CHO cell membrane fraction expressing human CB1 receptor
T1 construct: expressed in transfected cells; host or cells: CHO cells (membrane fraction)
Method: (§1) [^3H]-CP55,940 binding assay with a cell membrane fraction expressing human CB1 and CB2 receptor
(§2) [^3H]-CP55940 binding inhibition assay was conducted by incubating a CHO cell membrane fraction expressing human CB1 receptor and the test compound and 500 pM [^3H]-CP55940 in reaction buffer (50 mM Tris-HCl (pH7.4), 5 mM MgCl2, 2.5 mM EDTA and 0.5% BSA (fatty acid free)) at room temperature for 60 minutes. The reaction solution was filtered through GF/C filter, washed with 300 μl of washing buffer (50 mM Tris-HCl (pH7.4), 0.05% BSA (fatty acid free)) four times, and the radioactivity of the filter was measured with a Top Count scintillation counter (Packard). As results, the test compound has inhibited binding of [^3H]-CP55940 to the membrane fraction dose-dependently.
(§3) The inhibitory activity of the test compound to [^3H]-CP55940 binding was calculated by percent on the basis that radioactivity is 100% when only 500 pM [^3H]-CP55940 was added, and 0% when 500 pM [^3H]-CP55940 and 100 nM CP55940 were added at the same time. Further, IC50 value of the test compound was calculated by analyzing concentrations and percents of the test compound with PRISM 3.0 (Graphpad Software, Inc.).

human CB2 receptor = molecular target: T2, human CB2 receptor (Homo sapiens, UniProt P34972); assay: [3H]-CP55,940 binding inhibition assay, CHO cell membrane fraction expressing human CB2 receptor
T2 construct: expressed in transfected cells; host or cells: CHO cells (membrane fraction)
T2 sequence (P34972 whole entry): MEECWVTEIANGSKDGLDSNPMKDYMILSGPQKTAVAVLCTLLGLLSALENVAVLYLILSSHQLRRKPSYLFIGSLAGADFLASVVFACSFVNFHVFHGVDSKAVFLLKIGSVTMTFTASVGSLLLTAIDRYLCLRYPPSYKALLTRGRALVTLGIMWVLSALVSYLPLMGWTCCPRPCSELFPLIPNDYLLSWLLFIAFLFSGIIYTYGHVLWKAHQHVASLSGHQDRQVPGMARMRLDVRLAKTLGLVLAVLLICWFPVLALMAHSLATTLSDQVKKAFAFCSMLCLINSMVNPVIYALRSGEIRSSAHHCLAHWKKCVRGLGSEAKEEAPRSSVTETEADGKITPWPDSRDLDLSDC
Method: as §1, §2, §3
The same assay was also conducted for a CHO cell membrane fraction expressing human CB2 receptor, and the inhibitory activity to [^3H]-CP55940 binding was calculated.

CB1 receptor = molecular target: T3, CB1 receptor (Mus musculus, UniProt P47746); assay: Body temperature-lowering action on mouse (CB1 receptor agonistic activity in vivo); conditions: Jcl: ICR male mice, 1 mg/kg i.p., rectal temperature 30 minutes after administration, compared with control group
T3 construct: from tissue; host or cells: whole animal, Jcl: ICR male mice
T3 sequence (P47746 whole entry): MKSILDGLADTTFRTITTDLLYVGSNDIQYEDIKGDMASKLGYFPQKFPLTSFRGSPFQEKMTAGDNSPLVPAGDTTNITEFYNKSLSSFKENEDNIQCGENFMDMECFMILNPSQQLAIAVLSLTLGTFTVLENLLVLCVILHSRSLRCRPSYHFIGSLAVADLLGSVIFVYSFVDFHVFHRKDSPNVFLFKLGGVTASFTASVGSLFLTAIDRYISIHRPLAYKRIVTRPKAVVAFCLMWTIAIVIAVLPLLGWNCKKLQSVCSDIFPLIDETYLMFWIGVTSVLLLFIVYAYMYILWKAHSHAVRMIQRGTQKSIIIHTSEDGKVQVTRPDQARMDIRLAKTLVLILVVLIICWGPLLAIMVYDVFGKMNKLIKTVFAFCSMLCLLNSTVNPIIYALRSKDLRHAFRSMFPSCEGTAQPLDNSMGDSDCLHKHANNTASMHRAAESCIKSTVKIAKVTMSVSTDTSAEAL
Method: Body temperature-lowering action on mouse
CB1 receptor agonistic activity of the compound of the present invention in vivo was evaluated by investigating the effect on the body temperature of mouse after the drug was administered to the mouse. In this experiment, Jcl: ICR male mice (5 weeks old) were used. After measuring the rectal temperature with a thermometer (Physitemp BAT-12) that was connected to a probe for measuring body temperature, the compound dissolved in 2.2% EtOH and 5% G2-β-cyclodextrin (solvent) was administered intraperitoneally. Solvent only was administered to the control group. 30 minutes after administration, rectal temperature was measured again. The experiment was conducted for 4 subjects per a group.

T1 sequence (P21554 whole entry): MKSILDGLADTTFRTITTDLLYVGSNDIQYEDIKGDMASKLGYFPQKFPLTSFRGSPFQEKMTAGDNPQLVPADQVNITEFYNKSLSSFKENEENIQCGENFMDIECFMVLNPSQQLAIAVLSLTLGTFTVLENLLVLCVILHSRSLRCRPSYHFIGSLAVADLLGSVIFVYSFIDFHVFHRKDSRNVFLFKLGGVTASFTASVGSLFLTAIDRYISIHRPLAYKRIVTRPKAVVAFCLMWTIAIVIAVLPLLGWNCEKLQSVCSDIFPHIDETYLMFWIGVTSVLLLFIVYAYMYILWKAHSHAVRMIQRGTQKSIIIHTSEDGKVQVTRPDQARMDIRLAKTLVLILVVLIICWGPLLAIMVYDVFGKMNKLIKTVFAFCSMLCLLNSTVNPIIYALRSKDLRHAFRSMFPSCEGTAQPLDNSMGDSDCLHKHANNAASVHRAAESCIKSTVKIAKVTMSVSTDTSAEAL

Cc1c(NC(=O)CC(C)(C)C)c(C)c2c(c1C(C)O)OCC2c1ccc(C(C)C)cc1 (single isomer, unassigned) [Example 28, N-(7-(1-Hydroxyethyl)-3-(4-isopropylphenyl)-4,6-dimethyl-2,3-dihydro-1-benzofuran-5-yl)-3,3-dimethylbutanamide]
IC50 (human CB1 receptor): < 10 nM | IC50 (human CB2 receptor): < 10 nM | Test Results (body temperature-lowering action) (CB1 receptor): Effective (estimated as effective if the compound of the present invention lowered the body temperature substantially by 1 °C or more when compared with the control group 30 minutes after administration of 1 mg/kg, i.p.)

Cc1c(NC(=O)CC(C)(C)C)c(C)c2c(c1C(C)O)OCC2c1ccc(C(C)C)cc1 (single isomer, unassigned) [Example 29, N-(7-(1-Hydroxyethyl)-3-(4-isopropylphenyl)-4,6-dimethyl-2,3-dihydro-1-benzofuran-5-yl)-3,3-dimethylbutanamide]
IC50 (human CB1 receptor; read-out: CB1 IC50 value, 500 pM [3H]-CP55940, CHO cell membrane fraction expressing human CB1 receptor, room temperature, 60 minutes): < 10 nM | IC50 (human CB2 receptor; read-out: CB2 IC50 value, 500 pM [3H]-CP55940, CHO cell membrane fraction expressing human CB2 receptor): < 10 nM | Test Results (body temperature-lowering action) (CB1 receptor): Effective (estimated as effective if the compound of the present invention lowered the body temperature substantially by 1 °C or more when compared with the control group 30 minutes after administration of 1 mg/kg, i.p.)

CCC(O)c1c(C)c(NC(=O)CC(C)(C)C)c(C)c2c1OCC2c1ccc(C(C)C)cc1 (single isomer, unassigned) [Example 31, N-(7-(1-Hydroxypropyl)-3-(4-isopropylphenyl)-4,6-dimethyl-2,3-dihydro-1-benzofuran-5-yl)-3,3-dimethylbutanamide]
IC50 (human CB1 receptor): < 10 nM | IC50 (human CB2 receptor): < 10 nM | Test Results (body temperature-lowering action) (CB1 receptor): Effective (estimated as effective if the compound of the present invention lowered the body temperature substantially by 1 °C or more when compared with the control group 30 minutes after administration of 1 mg/kg, i.p.)

Cc1c(C)c2c(c(C)c1NC(=O)CC(C)(C)C)C(c1ccc(C(C)C)cc1)CO2 (stereo not drawn) [Example 1, N-(3-(4-Isopropylphenyl)-4,6,7-trimethyl-2,3-dihydro-1-benzofuran-5-yl)-3,3-dimethylbutanamide]
IC50 (human CB1 receptor): 20 nM | IC50 (human CB2 receptor): < 10 nM | Test Results (body temperature-lowering action) (CB1 receptor): Effective (estimated as effective if the compound of the present invention lowered the body temperature substantially by 1 °C or more when compared with the control group 30 minutes after administration of 1 mg/kg, i.p.)

Cc1c(C)c2c(c(C)c1NC(=O)CC(C)(C)C)[C@@H](c1ccc(C(C)C)cc1)CO2 [Example 7, (+)-N-((3R)-3-(4-Isopropylphenyl)-4,6,7-trimethyl-2,3-dihydro-1-benzofuran-5-yl)-3,3-dimethylbutanamide]
IC50 (human CB1 receptor): < 10 nM | IC50 (human CB2 receptor): < 10 nM | Test Results (body temperature-lowering action) (CB1 receptor): Effective (estimated as effective if the compound of the present invention lowered the body temperature substantially by 1 °C or more when compared with the control group 30 minutes after administration of 1 mg/kg, i.p.)

CCC(=O)Nc1c(C)c(C)c2c(c1C)C(c1ccc(C(C)C)cc1)CO2 (stereo not drawn) [Example 9, N-(3-(4-Isopropylphenyl)-4,6,7-trimethyl-2,3-dihydro-1-benzofuran-5-yl)propionamide]
IC50 (human CB1 receptor): 79 nM | IC50 (human CB2 receptor): 11 nM

Cc1c(C)c2c(c(C)c1NC(=O)NC(C)(C)C)C(c1ccc(C(C)C)cc1)CO2 (stereo not drawn) [Example 14, N-(tert-Butyl)-N′-(3-(4-isopropylphenyl)-4,6,7-trimethyl-2,3-dihydro-1-benzofuran-5-yl)urea]
IC50 (human CB1 receptor): 20 nM | IC50 (human CB2 receptor): < 10 nM | Test Results (body temperature-lowering action) (CB1 receptor): Effective (estimated as effective if the compound of the present invention lowered the body temperature substantially by 1 °C or more when compared with the control group 30 minutes after administration of 1 mg/kg, i.p.)

Cc1c(NC(=O)CC(C)(C)C)c(C)c2c(c1C(C)O)OCC2c1ccc(C(C)C)cc1 (stereo not drawn) [Example 22, N-(7-(1-Hydroxyethyl)-3-(4-isopropylphenyl)-4,6-dimethyl-2,3-dihydro-1-benzofuran-5-yl)-3,3-dimethylbutanamide]
IC50 (human CB1 receptor): 11 nM | IC50 (human CB2 receptor): < 10 nM | Test Results (body temperature-lowering action) (CB1 receptor): Effective (estimated as effective if the compound of the present invention lowered the body temperature substantially by 1 °C or more when compared with the control group 30 minutes after administration of 1 mg/kg, i.p.)

CCc1c(C)c(NC(=O)CC(C)(C)C)c(C)c2c1OCC2c1ccc(C(C)C)cc1 (stereo not drawn) [Example 23, N-(7-Ethyl-3-(4-isopropylphenyl)-4,6-dimethyl-2,3-dihydro-1-benzofuran-5-yl)-3,3-dimethylbutanamide]
IC50 (human CB1 receptor): < 10 nM | IC50 (human CB2 receptor): < 10 nM | Test Results (body temperature-lowering action) (CB1 receptor): Effective (estimated as effective if the compound of the present invention lowered the body temperature substantially by 1 °C or more when compared with the control group 30 minutes after administration of 1 mg/kg, i.p.)

CC(=O)c1c(C)c(NC(=O)CC(C)(C)C)c(C)c2c1OCC2c1ccc(C(C)C)cc1 (stereo not drawn) [Example 32, N-(7-Acetyl-3-(4-isopropylphenyl)-4,6-dimethyl-2,3-dihydro-1-benzofuran-5-yl)-3,3-dimethylbutanamide]
IC50 (human CB1 receptor): < 10 nM | IC50 (human CB2 receptor): < 10 nM | Test Results (body temperature-lowering action) (CB1 receptor): Effective (estimated as effective if the compound of the present invention lowered the body temperature substantially by 1 °C or more when compared with the control group 30 minutes after administration of 1 mg/kg, i.p.)

Cc1c(NC(=O)CC(C)(C)C)c(C)c(C(C)(C)O)c2c1C(c1ccc(C(C)C)cc1)CO2 (stereo not drawn) [Example 33, N-(7-(1-Hydroxy-1-methylethyl)-3-(4-isopropylphenyl)-4,6-dimethyl-2,3-dihydro-1-benzofuran-5-yl)-3,3-dimethylbutanamide]
IC50 (human CB1 receptor): 14 nM | IC50 (human CB2 receptor): < 10 nM | Test Results (body temperature-lowering action) (CB1 receptor): Effective (estimated as effective if the compound of the present invention lowered the body temperature substantially by 1 °C or more when compared with the control group 30 minutes after administration of 1 mg/kg, i.p.)

CCCc1c(C)c(NC(=O)CC(C)(C)C)c(C)c2c1OCC2c1ccc(C(C)C)cc1 (stereo not drawn) [Example 34, N-(3-(4-Isopropylphenyl)-4,6-dimethyl-7-propyl-2,3-dihydro-1-benzofuran-5-yl)-3,3-dimethylbutanamide]
IC50 (human CB1 receptor): < 10 nM | IC50 (human CB2 receptor): < 10 nM | Test Results (body temperature-lowering action) (CB1 receptor): Effective (estimated as effective if the compound of the present invention lowered the body temperature substantially by 1 °C or more when compared with the control group 30 minutes after administration of 1 mg/kg, i.p.)

Cc1c(Br)c2c(c(C)c1NC(=O)CC(C)(C)C)C(c1ccc(C(C)C)cc1)CO2 (stereo not drawn) [Example 35, N-(7-Bromo-3-(4-isopropylphenyl)-4,6-dimethyl-2,3-dihydro-1-benzofuran-5-yl)-3,3-dimethylbutanamide]
IC50 (human CB1 receptor): < 10 nM | IC50 (human CB2 receptor): < 10 nM | Test Results (body temperature-lowering action) (CB1 receptor): Effective (estimated as effective if the compound of the present invention lowered the body temperature substantially by 1 °C or more when compared with the control group 30 minutes after administration of 1 mg/kg, i.p.)

COc1c(C)c(NC(=O)CC(C)(C)C)c(C)c2c1OCC2c1ccc(C(C)C)cc1 (stereo not drawn) [Example 36, N-(3-(4-Isopropylphenyl)-7-methoxy-4,6-dimethyl-2,3-dihydro-1-benzofuran-5-yl)-3,3-dimethylbutanamide]
IC50 (human CB1 receptor): < 10 nM | IC50 (human CB2 receptor): < 10 nM | Test Results (body temperature-lowering action) (CB1 receptor): Effective (estimated as effective if the compound of the present invention lowered the body temperature substantially by 1 °C or more when compared with the control group 30 minutes after administration of 1 mg/kg, i.p.)

CCOC(=O)C(C)(C)Oc1cc(C)cc(C)c1Cc1ccc(C(C)C)cc1 [Reference Example 153]
IC50 (human CB1 receptor; 500 pM [3H]-CP55940, CHO cell membrane fraction expressing human CB1 receptor, room temperature, 60 minutes, read-out: CB1 IC50 value): 110 nM | IC50 (human CB2 receptor; 500 pM [3H]-CP55940, CHO cell membrane fraction expressing human CB2 receptor, read-out: CB2 IC50 value): 560 nM

Cc1cc(C)c2c(c1)SCC2c1ccc(C(C)C)cc1 (stereo not drawn) [Reference Example 212]
IC50 (human CB1 receptor): 69 nM | IC50 (human CB2 receptor): < 10 nM

Cc1ccc(C)c2c1OC(=O)C2c1ccc(C(C)C)cc1 (stereo not drawn) [Reference Example 230]
IC50 (human CB1 receptor): 55 nM | IC50 (human CB2 receptor): 55 nM

Cc1ccc(C)c(C(CO)c2ccc(C(C)C)cc2)c1O (stereo not drawn) [Reference Example 233]
IC50 (human CB1 receptor): 38 nM | IC50 (human CB2 receptor): 47 nM

Cc1c(C)c(C(CO)c2ccc(C(C)C)cc2)c(O)c(C)c1Br (stereo not drawn) [Reference Example 234]
IC50 (human CB1 receptor): 40 nM | IC50 (human CB2 receptor): 31 nM
